From patent US12582722B2, “Bifunctional compounds for degrading BTK via ubiquitin proteosome pathway” (NURIX THERAPEUTICS, INC., priority 2019, dated 2026)

target: T1, BTK (Homo sapiens, UniProt Q06187); assay: Cellular BTK HTRF Assay (BTK degradation in Ramos cells); format: cell-based; settings: four hours incubation, 37° C., BTK levels relative to DMSO-treated cells
T1 construct: endogenous in cells; host or cells: Ramos (ATCC CRL-1596)
Description: Ramos (CRL-1596) cells were obtained from American Type Culture Collection and were grown in RPMI-1640 media (ATCC, 30-2001) supplemented with 10% heat-inactivated FBS (Corning Premium Fetal Bovine Serum from Fisher, MT35015CV).
Compounds of the present invention were added to 50,000 Ramos cells in round-bottom 96 well plates with a final DMSO concentration of […] and were incubated at 37° C., 5% CO2 for four hours. BTK levels were determined using Cisbio Total-BTK HTRF ([…] Time-Resolved Fluorescence) kit (63ADK064PEG) according to manufacturer's protocol. Briefly, cells were incubated in 1× supplied lysis buffer for 30 minutes. In an opaque white low volume 96 well plate (Cisbio, 66PL96005), cell lysate was combined with two different specific BTK antibodies, one conjugated with Eu^3+-Cryptate FRET donor and one conjugated with d2 FRET acceptor. Assay controls include wells containing cell lysate with only the Eu^3+-Cryptate FRET donor antibody and wells containing both HTRF antibodies and lysis buffer without cells or control lysate provided by Cisbio. HTRF ratio was calculated as (acceptor signal at 665 nm/donor signal at 620 nm)×10^4. Background HTRF levels were determined from the control well containing the donor, but no acceptor, antibody. Background HTRF levels were subtracted from all samples. Readouts were reported as HTRF levels relative to HTRF levels of DMSO-treated cells. Four-parameter non-linear regressions were performed in GraphPad Prism 7.02 to obtain DC50 values. DC50 values are provided in Table 3, wherein A<7.5 nM, 7.5 nM≤B≤50 nM, and 50 nM<C<500 nM.

T1 sequence (Q06187 whole entry): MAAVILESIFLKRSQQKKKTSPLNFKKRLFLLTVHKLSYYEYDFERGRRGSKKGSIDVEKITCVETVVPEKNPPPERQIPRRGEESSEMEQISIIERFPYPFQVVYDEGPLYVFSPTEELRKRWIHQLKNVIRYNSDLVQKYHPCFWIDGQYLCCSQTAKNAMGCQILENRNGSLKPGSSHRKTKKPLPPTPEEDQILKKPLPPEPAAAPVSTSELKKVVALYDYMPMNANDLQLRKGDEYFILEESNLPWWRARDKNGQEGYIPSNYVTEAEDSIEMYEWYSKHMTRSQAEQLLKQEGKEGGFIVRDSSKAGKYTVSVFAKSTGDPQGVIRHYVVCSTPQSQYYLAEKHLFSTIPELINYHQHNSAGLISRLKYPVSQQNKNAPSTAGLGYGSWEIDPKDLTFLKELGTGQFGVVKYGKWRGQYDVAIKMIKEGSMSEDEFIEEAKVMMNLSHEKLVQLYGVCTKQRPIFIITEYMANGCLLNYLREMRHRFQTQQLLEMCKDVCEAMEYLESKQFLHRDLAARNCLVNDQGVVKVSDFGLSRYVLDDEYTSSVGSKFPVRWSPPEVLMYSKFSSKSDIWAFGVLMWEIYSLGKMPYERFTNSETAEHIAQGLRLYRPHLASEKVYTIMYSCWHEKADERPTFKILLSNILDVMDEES

| Compound | DC50 [nM] |
| --- | --- |
| Cc1cc(Nc2nc(N3CCC[C@@H](NC(=O)C4CCN(C5CN(c6ccc7c(c6)C(=O)N(C6CCC(=O)NC6=O)C7=O)C5)CC4)C3)cnc2C(N)=O)sn1 (stereo partly drawn) [Compound 38, 5-((3R)-3-(1-(1-(2-(2,6-dioxopiperidin-3-yl)-1,3-dioxoisoindolin-5-yl)azetidin-3-yl)piperidine-4-carboxamido)piperidin-1-yl)-3-((3-methylisothiazol-5-yl)amino)pyrazine-2-carboxamide] | 7.5 to 50 |
| Cc1cc(Nc2nc(N3CCC[C@@H](NC(=O)C4CCN(C5CCN(c6ccc7c(c6)C(=O)N(C6CCC(=O)NC6=O)C7=O)CC5)CC4)C3)cnc2C(N)=O)sn1 (stereo partly drawn) [Compound 39, N—((R)-1-(5-carbamoyl-6-((3-methylisothiazol-5-yl)amino)pyrazin-2-yl)piperidin-3-yl)-1′-(2-(2,6-dioxopiperidin-3-yl)-1,3-dioxoisoindolin-5-yl)-[1,4′-bipiperidine]-4-carboxamide] | < 7.5 |
| CS(=O)(=O)c1ccc(Nc2nc(N3CCC[C@@H](NC(=O)C4CCN(C5CCN(c6ccc7c(c6)C(=O)N(C6CCC(=O)NC6=O)C7=O)CC5)CC4)C3)cnc2C(N)=O)cc1 (stereo partly drawn) [Compound 40, N—((R)-1-(5-carbamoyl-6-((4-(methylsulfonyl)phenyl)amino)pyrazin-2-yl)piperidin-3-yl)-1′-(2-(2,6-dioxopiperidin-3-yl)-1,3-dioxoisoindolin-5-yl)-[1,4′-bipiperidine]-4-carboxamide] | 50 to 500 |
| CS(=O)(=O)c1ccc(Nc2nc(N3CCC[C@@H](NC(=O)C4CC5CCC(C4)N5C4CCN(c5ccc6c(c5)C(=O)N(C5CCC(=O)NC5=O)C6=O)CC4)C3)cnc2C(N)=O)cc1 (stereo partly drawn) [Compound 41, N-[(3R)-1-{5-carbamoyl-6-[(4-methanesulfonylphenyl)amino]pyrazin-2-yl}piperidin-3-yl]-8-{1-[2-(2,6-dioxopiperidin-3-yl)-1,3-dioxoisoindol-5-yl]piperidin-4-yl}-8-azabicyclo[3.2.1]octane-3-carboxamide] | 50 to 500 |
| Cn1cc(Nc2nc(N3CCC[C@@H](N4CC5(CN(CC6CN(c7ccc8c(c7)C(=O)N(C7CCC(=O)NC7=O)C8=O)C6)C5)OC4=O)C3)cnc2C(N)=O)cn1 (stereo partly drawn) [Compound 42, 5-((3R)-3-(2-((1-(2-(2,6-dioxopiperidin-3-yl)-1,3-dioxoisoindolin-5-yl)azetidin-3-yl)methyl)-6-oxo-5-oxa-2,7-diazaspiro[3.4]octan-7-yl)piperidin-1-yl)-3-((1-methyl-1H-pyrazol-4-yl)amino)pyrazine-2-carboxamide] | < 7.5 |
| Cn1cc(Nc2nc(N3CCC[C@@H](N4CC5(CN(CC6CCN(c7ccc8c(c7)C(=O)N(C7CCC(=O)NC7=O)C8=O)CC6)C5)OC4=O)C3)cnc2C(N)=O)cn1 (stereo partly drawn) [Compound 43, 5-[(3R)-3-[2-({1-[2-(2,6-dioxopiperidin-3-yl)-1,3-dioxoisoindol-5-yl]piperidin-4-yl}methyl)-6-oxo-5-oxa-2,7-diazaspiro[3.4]octan-7-yl]piperidin-1-yl]-3-[(1-methylpyrazol-4-yl)amino]pyrazine-2-carboxamide] | < 7.5 |
| Cn1cc(Nc2nc(N3CCC[C@@H](N4CC5(CN(C6CCN(c7ccc8c(c7)C(=O)N(C7CCC(=O)NC7=O)C8=O)CC6)C5)OC4=O)C3)cnc2C(N)=O)cn1 (stereo partly drawn) [Compound 44, 5-[(3R)-3-(2-{1-[2-(2,6-dioxopiperidin-3-yl)-1,3-dioxoisoindol-5-yl]piperidin-4-yl}-6-oxo-5-oxa-2,7-diazaspiro[3.4]octan-7-yl)piperidin-1-yl]-3-[(1-methylpyrazol-4-yl)amino]pyrazine-2-carboxamide] | < 7.5 |
| CS(=O)(=O)c1ccc(Nc2nc(N3CCC[C@@H](NC(=O)[C@H]4CCN(CC5CCN(c6ccc7c(c6)C(=O)N(C6CCC(=O)NC6=O)C7=O)CC5)C4)C3)cnc2C(N)=O)cc1 (stereo partly drawn) [Compound 46, 5-[(3R)-3-[1-({1-[2-(2,6-dioxopiperidin-3-yl)-1,3-dioxoisoindol-5-yl]piperidin-4-yl}methyl)pyrrolidine-3-amido]piperidin-1-yl]-3-[(4-methanesulfonylphenyl)amino]pyrazine-2-carboxamide] | 7.5 to 50 |
| CS(=O)(=O)c1ccc(Nc2nc(N3CCC[C@@H](NC(=O)CCOCCCc4cccc5c4CN(C4CCC(=O)NC4=O)C5=O)C3)cnc2C(N)=O)cc1 (stereo partly drawn) [Compound 47, 5-[(3R)-3-(3-{3-[2-(2,6-dioxopiperidin-3-yl)-1-oxo-3H-isoindol-4-yl]propoxy}propanamido)piperidin-1-yl]-3-[(4-methanesulfonylphenyl)amino] pyrazine-2-carboxamide] | 50 to 500 |
| Cn1cc(Nc2nc(N3CCC[C@@H](N4CCC5(CCN(CC6CCN(c7ccc8c(c7)C(=O)N(C7CCC(=O)NC7=O)C8=O)CC6)CC5)C4=O)C3)cnc2C(N)=O)cn1 (stereo partly drawn) [Compound 48, 5-[(3R)-3-[8-({1-[2-(2,6-dioxopiperidin-3-yl)-1,3-dioxoisoindol-5-yl]piperidin-4-yl}methyl)-1-oxo-2,8-diazaspiro[4.5]decan-2-yl]piperidin-1-yl]-3-[(1-methylpyrazol-4-yl)amino]pyrazine-2-carboxamide] | < 7.5 |
| Cn1cc(Nc2nc(N3CCC[C@@H](N4CCC5(CCN(C6CCN(c7ccc8c(c7)C(=O)N(C7CCC(=O)NC7=O)C8=O)CC6)CC5)C4=O)C3)cnc2C(N)=O)cn1 (stereo partly drawn) [Compound 49, 5-[(3R)-3-(8-{1-[2-(2,6-dioxopiperidin-3-yl)-1,3-dioxoisoindol-5-yl]piperidin-4-yl}-1-oxo-2,8-diazaspiro[4.5]decan-2-yl)piperidin-1-yl]-3-[(1-methylpyrazol-4-yl)amino]pyrazine-2-carboxamide] | < 7.5 |
| Cn1cc(Nc2nc(N3CCC[C@@H](N4CCC5(CCN(CC6CN(c7ccc8c(c7)C(=O)N(C7CCC(=O)NC7=O)C8=O)C6)CC5)C4=O)C3)cnc2C(N)=O)cn1 (stereo partly drawn) [Compound 50, 5-[(3R)-3-[8-({1-[2-(2,6-dioxopiperidin-3-yl)-1,3-dioxoisoindol-5-yl]azetidin-3-yl}methyl)-1-oxo-2,8-diazaspiro[4.5]decan-2-yl]piperidin-1-yl]-3-[(1-methylpyrazol-4-yl)amino]pyrazine-2-carboxamide] | < 7.5 |
